Experimental data taken from patent US9258995B2, “Organ cold storage composition and methods of use” (BOARD OF TRUSTEES OF THE UNIVERSITY OF ARKANSAS, priority 2009, dated 2016).

How the values were obtained:
NRK cells [1] = assay: MitoSOX Red mitochondrial superoxide generation, cold storage in vitro model; format: cell-based, rat; conditions: 4 h CS at 4° C. in UW, 1 μM
Procedure: Normal rat kidney proximal tubular cells (NRK-52E; American Type Culture Collection, Manassas, Va.) were maintained in six-well 100 or 150-mm, or 150-mm plates in a humidified incubator gassed with 5% CO2 and 95% air at 37° C. in DMEM (Invitrogen, Carlsbad, Calif.) containing 5% fetal calf serum (FCS). Cells were grown to 60% confluence and divided into four treatment groups: 1) untreated (Untx), 2) CS, 3) CS+MitoQ, and 4) CS+DecylTPP. Untreated cells remained at 37° C. in DMEM containing 5% FCS (group 1). […]
MitoSOX Red (Invitrogen) was used to measure mitochondrial superoxide generation during CS. […] Fluorescence was visualized using an Eclipse E800 microscope (Nikon, Melville, N.Y.) with a rhodamine filter using a water immersion objective (60×). Fluorescent images of NRK cells were captured with equal exposure times and quantified by averaging the mean intensity fluorescence of five random cells in three different fields using Nikon N is Elements software. In separate experiments, cells were grown on coverslips, preloaded with MitoSOX Red before treatment (groups 1-4), and evaluated for mitochondrial superoxide generation using a Hitachi F-2500 spectrofluorometer (Hitachi, Tokyo, Japan) equipped with a coverslip holder using two different excitation wavelengths: 396 and 510 nm with the emission measured at 580 nm as previously described. […]

rat kidneys [2] = assay: MitoSOX Red mitochondrial superoxide generation, cold storage ex vivo model; conditions: rat kidneys, 4 h CS at 4° C., 100 μM
Procedure: (§1) All animals were treated according to the National Institutes of Health Guide for the Care and Use of Laboratory Animals and the University of Arkansas for Medical Sciences Institutional Animal Care and Use Committee guidelines. Male Fischer 344 inbred rats (Charles Rivers Laboratories, Inc., Wilmington, Mass.) weighing between 250 and 300 g were anesthetized with ethrane, followed by shaving and prepping with betadine. […] Bulldog clamps were placed on the aorta and vena cava (proximal and distal to the renal vessels) to prevent blood flow to the kidneys. A 22-gauge surgical needle was used to puncture the rat's aorta to flush the renal grafts with saline (10 ml per kidney) using a small catheter. Once the kidneys started to turn light brown (perfusion), another vent was formed in the vena cava to allow blood flow from the kidneys. Once both kidneys were completely flushed, the right kidney was recovered and served as a control (group 1), and the left kidney was exposed to CS alone for 4 h at 4° C. (group 2). In additional experiments, kidneys were flushed with saline through the aorta using a small catheter followed by flushing the right kidney with saline containing MitoQ (100 μM) and the left kidney with saline containing DecylTPP (100 μM) (10 ml per kidney). Tissues were recovered and stored in CS+MitoQ (100 μM; right kidney) or CS+DecylTPP (100 μM; left kidney) for 4 h at 4° C. (groups 3 and 4, respectively). […]
MitoSOX Red (Invitrogen) was used to measure mitochondrial superoxide generation during CS. […] Fluorescence was visualized using an Eclipse E800 microscope (Nikon, Melville, N.Y.) with a rhodamine filter using a water immersion objective (60×). Fluorescent images of NRK cells were captured with equal exposure times and quantified by averaging the mean intensity fluorescence of five random cells in three different fields using Nikon N is Elements software. In separate experiments, cells were grown on coverslips, preloaded with MitoSOX Red before treatment (groups 1-4), and evaluated for mitochondrial superoxide generation using a Hitachi F-2500 spectrofluorometer (Hitachi, Tokyo, Japan) equipped with a coverslip holder using two different excitation wavelengths: 396 and 510 nm with the emission measured at 580 nm as previously described. In addition, rat kidneys were monitored for mitochondrial superoxide generation by flushing kidneys with saline through the aorta using a small catheter as described under Cold Storage Ex Vivo Model, followed by saline containing MitoSOX Red (5 μM; 10 ml/kidney) before treatment (groups 1-4). Paraffin sections were analyzed using the rhodamine filter on the Nikon Eclipse 800 microscope (20×).

NRK cells [3] = assay: Nitrotyrosine immunocytochemistry during CS; format: cell-based, rat; conditions: 4 h CS, 1 μM
Procedure: (§2) Normal rat kidney proximal tubular cells (NRK-52E; American Type Culture Collection, Manassas, Va.) were maintained in six-well 100 or 150-mm, or 150-mm plates in a humidified incubator gassed with 5% CO2 and 95% air at 37° C. in DMEM (Invitrogen, Carlsbad, Calif.) containing 5% fetal calf serum (FCS). Cells were grown to 60% confluence and divided into four treatment groups: 1) untreated (Untx), 2) CS, 3) CS+MitoQ, and 4) CS+DecylTPP. Untreated cells remained at 37° C. in DMEM containing 5% FCS (group 1). CS was initiated by washing cells with cold PBS (Invitrogen) twice and storing them in UW/Viaspan solution alone (4 h at 4° C.) (group 2), CS+MitoQ (1 μM) (group 3), or CS+DecylTPP (1 μM) (group 4). In separate experiments, cells were exposed to CS plus RW by replacing UW solution alone or UW solution containing MitoQ or DecylTPP with DMEM containing 5% FCS overnight (18 h at 37° C.).
(§3) NRK cells (groups 1-4) were assessed for nitrotyrosine formation as previously described. […] Nitrotyrosine staining was evaluated and captured with equal exposure times using a Nikon Eclipse 800 microscope (40×oil). Images were quantified by averaging the mean intensity fluorescence of five random cells in three different fields using Nikon N is Elements software. Renal tissue sections were assessed for the presence of nitrotyrosine protein adducts by nitrotyrosine immunohistochemistry. […]

[4] = test system: mitochondrial respiratory complex II; assay: Mitochondrial respiratory complex activity, NRK cell mitochondria after CS; format: cell-based, rat; conditions: NRK cells, 4-h CS, 1 μM
Procedure: as §2
(§4) NRK cell and rat kidney mitochondria were isolated by centrifugation on a sucrose density gradient. The activity of mitochondrial respiratory complexes I, II, III, or IV were assayed spectrophotometrically using 100 μg of mitochondrial protein at 30° C. as previously described.

[5] = test system: mitochondrial respiratory complex I; assay: as above; format: cell-based, rat; conditions: NRK cells, 4-h CS, 1 μM
Procedure: as §2, §4

[6] = test system: mitochondrial respiratory complex II; assay: Mitochondrial respiratory complex activity, rat kidney mitochondria after CS; conditions: rat kidneys, 4-h CS, 100 μM
Procedure: (§5) All animals were treated according to the National Institutes of Health Guide for the Care and Use of Laboratory Animals and the University of Arkansas for Medical Sciences Institutional Animal Care and Use Committee guidelines. Male Fischer 344 inbred rats (Charles Rivers Laboratories, Inc., Wilmington, Mass.) weighing between 250 and 300 g were anesthetized with ethrane, followed by shaving and prepping with betadine. […] Bulldog clamps were placed on the aorta and vena cava (proximal and distal to the renal vessels) to prevent blood flow to the kidneys. A 22-gauge surgical needle was used to puncture the rat's aorta to flush the renal grafts with saline (10 ml per kidney) using a small catheter. Once the kidneys started to turn light brown (perfusion), another vent was formed in the vena cava to allow blood flow from the kidneys. Once both kidneys were completely flushed, the right kidney was recovered and served as a control (group 1), and the left kidney was exposed to CS alone for 4 h at 4° C. (group 2). In additional experiments, kidneys were flushed with saline through the aorta using a small catheter followed by flushing the right kidney with saline containing MitoQ (100 μM) and the left kidney with saline containing DecylTPP (100 μM) (10 ml per kidney). Tissues were recovered and stored in CS+MitoQ (100 μM; right kidney) or CS+DecylTPP (100 μM; left kidney) for 4 h at 4° C. (groups 3 and 4, respectively). A thin middle section from all of the kidneys were cut and immediately fixed in 10% formalin before being embedded in paraffin for sectioning (4 μm) and histological evaluation. The remaining portion of the kidneys were quickly frozen in liquid nitrogen and stored in −80° C. until needed for biochemistry analyses.
as §4

[7] = test system: mitochondrial respiratory complex I; assay: as above; conditions: rat kidneys, 4-h CS, 100 μM
Procedure: as §5, §4

rat kidneys [8] = assay: Periodic acid-Schiff morphological assessment of renal injury during CS; conditions: 4 h CS, 100 μM
Procedure: as §1, with “C.” for “C. (group 2). In additional experiments, kidneys were flushed with saline through the aorta using a small catheter followed by flushing the right kidney with saline containing MitoQ (100 μM) and the left kidney with saline containing DecylTPP (100 μM) (10 ml per kidney). Tissues were recovered and stored in CS+MitoQ (100 μM; right kidney) or CS+DecylTPP (100 μM; left kidney) for 4 h at 4° C. (groups 3 and 4, respectively).”
Renal sections were assessed for tissue injury using the periodic acid-Schiff reaction. […] Morphological evaluation of tubular dilation, brush border loss, and cellular debris/tubular cast formation were performed blindly with light microscopy and assessed semiquantitatively according to the following scoring system: 0, no changes; 1, mild changes; 2, moderate changes, and 3, severe changes.

rat kidneys [9] = assay: TUNEL staining of renal cell death during CS; conditions: 4 h CS, 100 μM
Procedure: All animals were treated according to the National Institutes of Health Guide for the Care and Use of Laboratory Animals and the University of Arkansas for Medical Sciences Institutional Animal Care and Use Committee guidelines. Male Fischer 344 inbred rats (Charles Rivers Laboratories, Inc., Wilmington, Mass.) weighing between 250 and 300 g were anesthetized with ethrane, followed by shaving and prepping with betadine. […] Bulldog clamps were placed on the aorta and vena cava (proximal and distal to the renal vessels) to prevent blood flow to the kidneys. A 22-gauge surgical needle was used to puncture the rat's aorta to flush the renal grafts with saline (10 ml per kidney) using a small catheter. Once the kidneys started to turn light brown (perfusion), another vent was formed in the vena cava to allow blood flow from the kidneys. […]
Cell cytotoxicity was determined using the LDH-Cytotoxicity Assay Kit II (Biovision Research Products, Mountain View, Calif.) according to the manufacturer's instructions. Absorbance was measured at 450 nm using a SpectraMax 190 microplate reader and SpectraMax software (Molecular Devices, Sunnyvale, Calif.). Renal cell death was determined using TUNEL staining. […] The amount of cell death was calculated by averaging the number of cells positive for TUNEL (brown staining) in 10 different fields (cortex and medulla) (20×). […]

NRK cells [10] = assay: Nitrotyrosine immunocytochemistry, CS plus rewarming; format: cell-based, rat; conditions: 4-h CS plus overnight (18 h) RW, 1 μM added during CS
Procedure: as §2, §3

NRK cells [11] = assay: LDH cytotoxicity assay, CS and CS plus rewarming; format: cell-based; conditions: 1 μM
Procedure: as §2
Cell cytotoxicity was determined using the LDH-Cytotoxicity Assay Kit II (Biovision Research Products, Mountain View, Calif.) according to the manufacturer's instructions. Absorbance was measured at 450 nm using a SpectraMax 190 microplate reader and SpectraMax software (Molecular Devices, Sunnyvale, Calif.). Renal cell death was determined using TUNEL staining. Kidney sections were deparaffinized, rehydrated, and exposed to antigen retrieval (20-min incubation at 95° C. with 10 mM sodium citrate buffer, pH 6.0) followed by washing with distilled water and quenching of endogenous peroxidase. Sections were immersed in TdT labeling buffer and then incubated in a humidified chamber with the labeling reaction mix from the TAGS 2 TdT-DAB In Situ Apoptosis Detection kit (Trevigen, Inc., Gaithersburg, Md.) for 1 h at room temperature. The reaction was stopped with TdT stop buffer, and slides were subsequently washed with PBS. Sections were incubated for 10 min with streptavidin-HRP followed by development with diaminobenzidine solution, counterstaining with Mayer's hematoxylin, dehydration, and mounting with Cytoseal-60. The amount of cell death was calculated by averaging the number of cells positive for TUNEL (brown staining) in 10 different fields (cortex and medulla) (20×). All images were taken at equal exposure times (40×oil).

NRK cells [12] = conditions: 24 h CS of NRK cells; cited from earlier work

In the case of `CCCCCCCCCC[P+](c1ccccc1)(c1ccccc1)c1ccccc1.[Br-]` [DecylTPP, decyltriphenylphosphonium bromide, reference compound], the “CS-induced mitochondrial superoxide generation (MitoSOX Red)” value (NRK cells [1]) was “did not offer any protection”, the “mitochondrial superoxide generation (MitoSOX Red)” value (rat kidneys [2]) was “comparable levels of mitochondrial superoxide to kidneys exposed to CS alone” and the “effect on CS-mediated nitrotyrosine formation” value (NRK cells [3]) was “did not decrease”. For the same compound, the “complex II inactivation” value [4] was “no significant effect”, the “complex I inactivation” value [5] was “no significant effect” and the “complex II inactivation” value [6] was “did not have any effect”. The “complex I inactivation” value [7] was “did not have any effect”, the “renal histology / renal injury (periodic acid-Schiff staining)” value (rat kidneys [8]) was “did not reverse renal injury” and the “protection against cell death (TUNEL)” value (rat kidneys [9]) was “no protective benefits”. The “nitrotyrosine staining during CS.RW” value (NRK cells [10]) was “no effect”, the “effect on cell death (LDH cytotoxicity)” value (NRK cells [11]; CS alone) was “did not reduce” and the “effect on cell death (LDH cytotoxicity)” value (NRK cells [11]; CS.RW) was “did not reduce”.

For `CNC(=N)NCCC[C@H](N)C(=O)O.O=C(O)CC(O)(CC(=O)O)C(=O)O` [N^5-[imino(methylamino)methyl]-L-ornithine citrate], the “nitrotyrosine staining (one marker of peroxynitrite)” value (NRK cells [12]) is given as “inhibited”.
